The values below come from patent US20150152441A1, “METHODS AND SYSTEMS FOR IMPROVING FERMENTATION EFFICIENCY” (LanzaTech New Zealand Limited, priority 2013, published 2015).

The test system of data set [1] is Clostridium autoethanogenum culture. The data set can be described thus: Determination of effect of BTEX on fermentation (continuous CO gas fermentation; impact seen as rising pH and/or effect on CO and H2 uptake). The class given is cell-based. Conditions: for Liquid tolerance level / Liquid impact level (ppm): level in fermentation broth, compound added individually; for Liquid tolerance level: addition lowered until no effect was observed; for Liquid impact level (ppm): impact = rising pH and/or effect on CO and H2 uptake. The method, then: Media was prepared according to the composition described in Tables 1-3 to a volume of 1.5 L and 1.5 ml of resazurin added. The solution was heated and agitated whilst degassed with N2. A Na2S drip was started at a rate of 0.5 ml/hr and temperature of the bioreactor set to 37° C. The pH was adjusted to 5.0 with NH4OH and chromium was added to adjust the ORP to −200 mV. The bioreactor was then supplied with RMG (43% CO, 20% CO2, 2.5% H2 and 33% N2) at a flow rate of 50 ml/min. The solution was inoculated with 150 ml of an actively growing Clostridium autoethanogenum culture. The fermentation was operated continuously for a period of 41 days at dilution rate 1.5. At day 26.8, Toluene was added to the gas phase. To achieve this, the inflow gas was sparged through a toluene solution, which allowed toluene to accumulate in the reactor. Toluene was allowed to accumulate for 17 hours. The fermentation was allowed to recover and the experiment was repeated on day 27.8.
The reactor was allowed to recover. On day 35 Benzene was added to the gas phase. To achieve this, the inflow gas was sparged through a benzene solution, which allowed benzene to accumulate in the reactor. […] Benzene was allowed to accumulate to higher concentrations.
The effect of the addition of xylene and ethylbenzene were also performed using the same techniques. Based on vapour pressure the compounds would evaporate at a certain rate into gaseous phase.
The effect of the introduction of the various BTEX compounds on bacterial culture performance was determined by measurement of the following: culture density, metabolite concentration (ethanol, acetate, etc), oxidation-reduction potential, pH, carbon monoxide and hydrogen consumption. The compound accumulation in the gas and culture liquid phase was determined by GC-MS measurements.
Liquid tolerance levels were determined by lowering the addition until no effect was observed.

For data set [2] the following is noted: cited from earlier work.

Turning to `c1ccccc1` [Benzene], the “level in broth at which the compound began to effect the fermentation” value in data set [1] (FIG. 5-7) was at least 50 ppm. The “accumulation resulting in an increase in pH and decrease in CO uptake” value in data set [1] (FIG. 6, 7) is recorded as “greater than 50 ppm”. In data set [1] (benzene added to gas phase on day 35), the “accumulation level with no observable effect on the fermentation” value is given as at most 40 ppm. Moreover, in data set [1], the Liquid tolerance level is recorded as under 40 ppm and the “Liquid impact level (ppm)” value was over 40 ppm. In addition, the “mm Hg vapor pressure (25° C.)” value in data set [2] is given as 76 mm Hg.
Take `CCc1ccccc1` [Ethyl Benzene]: in data set [1], the “effect of addition to the reactor on the fermentation” value (from here on “effect of addition to the reactor”) is “same effect was also seen”, the Liquid tolerance level is under 10 ppm and the “Liquid impact level (ppm)” value is on record as over 20 ppm. The “mm Hg vapor pressure (25° C.)” value in data set [2] is recorded as 7 mm Hg.
As to `Cc1ccccc1` [Toluene], in data set [1] (after 3.5 hours exposure, FIG. 2-4), the “level in fermentation broth at which CO uptake decreased, with rising pH trend” value was “greater than 100 ppm”. Besides, in data set [1] (after toluene addition was stopped), the “level in broth below which CO uptake and pH returned to pre-addition levels (fermentation recovers)” value is “below 100 ppm”. Moreover, in data set [1] (excess levels in fermentation solution), the “effect on carbon monoxide utilisation of the microorganism” value was “clear negative effect”. Besides, in data set [1], the Liquid tolerance level is listed as under 25 ppm and the “Liquid impact level (ppm)” value was over 50 ppm. In data set [2], the “mm Hg vapor pressure (25° C.)” value is 22 mm Hg.
On to `c1ccc2ccccc2c1` [naphthalene], for which the “effect of addition to the reactor” value in data set [1] is reported as “does not have a negative effect on the fermentation”.
In the case of Xylenes, in data set [1], the “effect of addition to the reactor” value is recorded as “same effect was also seen”, the Liquid tolerance level was under 10 ppm and the “Liquid impact level (ppm)” value was over 100 ppm.
